Test results: publication PMC12206857 (Frontiers in Microbiology, 2025)
“Also recorded” adds a separate entry of the source. Read-outs that look alike come from different tables or passages of the source. *1 amine or outer side, *2 acyl side, *3 side chain or, on linkers, in order; H or OH if unused. Where a SMILES comes first, the peptide text is derived from it. [ ]: non-standard residue; d: D form. X1 = CC(C)CCCCCCCCC[C@H](CC(=O)[*:2])N[*:1]

How the values were obtained:
F. graminearum conidia = conditions: ref Gong et al., 2015; cited from earlier work
Fusarium oxysporum = conditions: 25 μg/mL or 50 μg/mL; ref Hua et al., 2023; cited from earlier work
F. graminearum cells = conditions: ref Liang et al., 2023; cited from earlier work
F. graminearum [1] = format: in vivo, Fusarium graminearum on corn seeds; conditions: seeds soaked in 64 μg/mL, sprayed with spores 1 × 10^5 CFU/mL, 28°C, 10 seeds per group
DON and ZEN = tested on: DON and ZEN; parameters: species or system Fusarium graminearum on corn seeds; conditions: in vivo
F. graminearum [2] = format: physicochemical, Fusarium graminearum; conditions: filter paper method; for Effect of divalent cations Fe2+, Mg2+, Ca2+ on antifungal activity: 10 nM metal ion; for Thermal stability of antifungal activity: 25°C, 50°C, 100°C water for 30 min
F. graminearum hyphae = format: cell-based, Fusarium graminearum; conditions: 16 and 32 μg/mL, 12 h in PDB at 28°C
F. graminearum [3] = format: cell-based, Fusarium graminearum; conditions: dose-dependent, DCFH-DA fluorescence
F. graminearum [4] = format: cell-based, Fusarium graminearum; conditions: DiSC3(5) fluorescence
proteinase K = proteinase K (Parengyodontium album, UniProt P06873); conditions: n = 3
Sequence of proteinase K (P06873 106-384): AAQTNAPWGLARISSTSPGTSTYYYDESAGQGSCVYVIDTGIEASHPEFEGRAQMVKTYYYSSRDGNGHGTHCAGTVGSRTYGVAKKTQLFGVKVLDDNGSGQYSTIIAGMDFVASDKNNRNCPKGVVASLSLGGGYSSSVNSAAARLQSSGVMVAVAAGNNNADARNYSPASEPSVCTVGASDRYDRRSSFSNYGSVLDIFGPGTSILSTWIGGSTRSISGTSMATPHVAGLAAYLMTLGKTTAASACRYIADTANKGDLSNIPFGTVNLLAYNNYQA

trypsin = conditions: 5 mg/mL enzyme, 1 h, 37°C, stopped 10 min at 100°C; read-out antifungal activity against F. graminearum by filter paper method; n = 3
pepsin = conditions: 5 mg/mL enzyme, 1 h, 37°C, stopped 10 min at 100°C; read-out antifungal activity against F. graminearum by filter paper method; n = 3
papain = target: T1, papain (Carica papaya, UniProt P00784); conditions: n = 3
T1 sequence (P00784 134-345): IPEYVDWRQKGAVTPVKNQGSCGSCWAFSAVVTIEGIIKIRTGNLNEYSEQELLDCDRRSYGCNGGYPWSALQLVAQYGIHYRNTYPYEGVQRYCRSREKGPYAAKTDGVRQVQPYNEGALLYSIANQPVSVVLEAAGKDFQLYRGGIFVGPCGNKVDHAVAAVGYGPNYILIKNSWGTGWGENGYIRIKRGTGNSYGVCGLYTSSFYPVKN

F. graminearum [5] = conditions: mixture of bacillomycin D with different fatty acid chain lengths; ref Gu et al., 2017; cited from earlier work

Molecule: iturin A
- MIC, complete killing of F. graminearum conidia (F. graminearum conidia): 50 µg/mL
- Cell membrane integrity of Fusarium oxysporum (Fusarium oxysporum): disrupted
- ROS in Fusarium oxysporum (Fusarium oxysporum): significantly increased

Molecule: surfactin
- Intracellular ROS accumulation in F. graminearum cells (F. graminearum cells): induce intracellular ROS accumulation

Molecule: CC(C)CCCCCCCCC[C@@H]1CC(=O)N[C@@H](CC(N)=O)C(=O)N[C@H](Cc2ccc(O)cc2)C(=O)N[C@H](CC(N)=O)C(=O)N2CCC[C@H]2C(=O)N[C@@H](CCC(=O)O)C(=O)N[C@H](CO)C(=O)N[C@@H]([C@@H](C)O)C(=O)N1 [bacillomycin D, C15-bacillomycin D] (cyclo([X1]N[dY][dN]PE[dS]T))
- Infection of maize seeds by F. graminearum (F. graminearum [1]): completely preventing infection
- DON toxin synthesis in treated maize seeds (DON and ZEN): no detectable synthesis
- ZEN toxin synthesis in treated maize seeds (DON and ZEN): no detectable synthesis
- Stability of antifungal activity in the presence of metal ions (F. graminearum [2]; 10 nM Na+, K+, Ca2+, Mg2+, Cu2+, Fe2+, Fe3+, room temperature, 2.5 mg/mL, n = 3): retained stable antibacterial activity
- Effect of divalent cations Fe2+, Mg2+, Ca2+ on antifungal activity (F. graminearum [2]; room temperature, 2.5 mg/mL, n = 3): enhance their antifungal activity
- Effect of divalent cations Fe2+, Mg2+, Ca2+ on antifungal activity (F. graminearum [2]; room temperature, 2.5 mg/mL, n = 3, listed as eumelanin): significantly enhanced
- Thermal stability of antifungal activity (F. graminearum [2]; 7 μL of 2.5 mg/mL, colony diameter after 24 h at 28°C, n = 3): remains stable
- Thermal stability of antifungal activity (F. graminearum [2]; 7 μL of 2.5 mg/mL, colony diameter after 24 h at 28°C, n = 3, listed as Bacillomycin D): maintained stable antibacterial activity
- Antifungal activity across pH range 2–12 (F. graminearum [2]; pH 2–12, room temperature): maintains good antifungal activity
- pH stability of antifungal activity, pH 8 or 10 (F. graminearum [2]; pH 8 or 10 (pH 8–10), room temperature, 7 μL of 2.5 mg/mL, colony diameter after 24 h at 28°C, n = 3): significant enhancement of antibacterial activity; also recorded: significant increase in antifungal activity
- pH stability of antifungal activity, pH 14 (F. graminearum [2]; pH 14, room temperature, 2.5 mg/mL, n = 3): complete loss of activity
- pH stability of antifungal activity, other pH conditions (F. graminearum [2]; pH values from 2 to 14 other than 8, 10 and 14, room temperature, 2.5 mg/mL, n = 3): the activity remained stable
- Hyphal morphology by SEM (F. graminearum hyphae): induced abnormal development
- ROS levels in F. graminearum cells (in words) (F. graminearum [3]): induced abnormal ROS accumulation
- Cell membrane potential (in words) (F. graminearum [4]): induced depolarization
- Activity after treatment with proteinase K (proteinase K): retained their activity
- Activity after treatment with trypsin (trypsin): retained their activity
- Activity after treatment with pepsin (pepsin): retained their activity
- Activity after treatment with papain (papain): retained their activity
- Half-inhibitory concentration (IC50) on F. graminearum (F. graminearum [5]): approximately 30 μg/mL
